Data published in patent publication US9447083B2, “N-acylhydrazone derivatives for selective T cell inhibitor and anti-lymphoid malignancy drug” (CHONG KUN DANG PHARMACEUTICAL CORP., priority 2012, dated 2016).
Where two headings read alike, the source gives them in different places.

Tests used:
[1] = system: IM9; experiment: Apoptosis of lymphoid malignancy cell lines: IM9; format: cell-based; settings: Homo sapiens, IM-9; IM9, Multiple myeloma, 24 hours; read-out: Administration Dose (mean ± SD, μmol/L) Lethal Dose 50 (Apoptosis)
Method: (§1) Each of the acute T cell leukemia cell lines Jurkat, Molt4 and CCRF-CEM, the acute B cell leukemia cell line Raji and the […] cell lines KMS11, KMS12BM, KMS26, KMS28BM, and IM9 was re-suspended in 10% FBS-containing RPMI medium at a concentration of 1.5×10^5 cells/mL, and 200 μL of each of the cell suspensions was cultured in a flat bottom 96-well plate (Costar). The acute NK cell lymphoma cell line NK-92MI was re-suspended in α-MEM medium (supplemented with 20% FBS, 1×MEM vitamine solution, 50 μM 2-mercaptoethanol and 1× penicillin/streptomycin) at a concentration of 1.5×10^5 cells/mL, and 200 μL of the cell suspension was cultured in a flat bottom 96-well plate. The cells in each well was treated with 10 μL of each of 0.1, 0.25, 0.5, 0.75 and 1 μM of the compound diluted with RPMI medium, followed by that the cells were incubated in a 5% CO2 incubator at 37° C. for 24 hours. In a vehicle control group, cells were treated with 10 μL of medium containing 0.05% dimetylsulfoxide (DMSO, Sigma).
(§2) The cells were collected, and then the apoptosis thereof was analyzed by a flow cytometer after staining with Annexin V-7-AAD. The incubated cells were collected, placed in a 5-mL FACS tube (BD Falcon) and washed with 1 mL of fluorescence activated cell sorting (FACS) buffer (1%. FBS and 0.1% sodium azaide in PBS). The cells were re-suspended in 0.1 mL of FACS buffer, followed by that the cells were treated and stained with phycoerythrin-Annexin V at room temperature for 10 minutes. After 10 minutes of staining, the cells were treated and stained with 7-AAD at room temperature for 5 minutes. The stained cells were suspended in 0.3 mL of FACS buffer, and then analyzed by a flow cytometer. […] Thus, compounds 065, 108, 229 and 457 of the present invention can be used as a novel anti-lymphoid malignancy drug.

[2] = system: Jurkat T cells; experiment: Pro-apoptotic activity on Jurkat T cells (FITC-Annexin V / 7-AAD flow cytometry); format: cell-based; settings: Homo sapiens, 72 hours, cells stained with FITC-Annexin V and 7-AAD among total cells
Method in brief: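 Jurkat cells at 1.5×10^5 cells/mL in RPMI/10% FBS treated with compounds at […] or 5 μM final for 72 h at 37° C, vehicle containing 1% DMSO. Stained with FITC-Annexin V and 7-AAD for 15 min at room temperature in pH 7.4 Hepes binding buffer. Apoptosis = % double-stained cells by flow cytometry.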

[3] = system: Molt4; experiment: Apoptosis of lymphoid malignancy cell lines: Molt4; format: cell-based; settings: Homo sapiens, MOLT-4; Molt4, Acute T cell leukemia, 24 hours; read-out: Administration Dose (mean ± SD, μmol/L) Lethal Dose 50 (Apoptosis)
Method: as §1, §2

[4] = system: Jurkat; experiment: Apoptosis of lymphoid malignancy cell lines (Annexin V / 7-AAD): Jurkat; format: cell-based; settings: Homo sapiens, Acute T cell leukemia, 24 hours, read-out: Administration Dose (mean ± SD, μmol/L) Lethal Dose 50 (Apoptosis)
Method: as §1, §2

[5] = system: Experimental Autoimmune Encephalomyelitis (EAE); experiment: Experimental Autoimmune Encephalomyelitis (EAE) model of multiple sclerosis; format: in vivo, mouse; settings: 1 mg/kg orally daily from 17 to 37 days
Method: At the first day of induction, myelin oligodendrocyte glycoprotein35-55 (MOG35-55, Peptron) (200 ug), mycobacterium tuberculosis (Difco, Cat No. 231141) (500 μg) and complete Freund's adjuvant (Sigma Aldrich, Cat No. F5506) were mixed with each other and immersed for 5 minutes. 0.1 mL of the immersed peptide was injected subcutaneously into both the flanks of each of C57BL/6 mice (9 week old, female, 18±2 g), followed by that […] pertussis toxin (Sigma Aldrich, Cat No. P2980) (200 ng) was injected by intravenously. At 2 days, the same amount of pertussis toxin was administered intravenously. Whether the immersion leaked from the injected portion of the mice was checked, and whether EAE was induced was also examined by visual observation from 7 days.
Compound 229 and Fingolimod that is currently clinically used for the treatment of multiple sclerosis were completely dissolved in a Cremophor EL-ethanol mixture (1:1, v/v) in an amount corresponding to 7.5% (v/v) of the administration volume, and the compound solution was diluted in PBS. The two groups of the mice were administered orally with 200 μL of the diluted solution of compound 229 at each doses of 25 and 50 mg/kg separately, and the third group of the mice was administered orally with 200 μL of the diluted solution of fingolimode at a dose of 1 mg/kg on a daily basis from 17 days to 37 days (for total 21 times) after starting of the experiment. In a vehicle control group, 200 μL of a Cremophor EL-ethanol-PBS mixture (3.75:3.75:92.5, v/v/v) was administered to each mouse in the same manner as the treated group. The index of EAE was recorded daily based on visual observation using a severity index system (6-point (0 to 5) scale) from 7 days of the experiment. The symptoms of multiple sclerosis were evaluated based on the following criteria:
2: limp tail and hind limb weakness;
4: hind limb paralysis and forelimb weakness; and […]

[6] = system: acute graft-versus-host disease; experiment: Acute graft-versus-host disease, mouse model of allogeneic bone marrow transplantation; format: in vivo; settings: 25 mg/kg intraperitoneally daily for 10 days
Description: Lymph nodes, spleens, both femurs and tibias were aseptically collected from normal C57BL/6 mice (8-12 week old, female, 20-23 g), and T cells were isolated from the lymph nodes and spleens in the same manner as described in Experimental Example 2 and were re-suspended in PBS at a concentration of 8×10^7 cells/mL. The femurs and tibias were cut at the ends, and the bone marrow was flushed from femurs and tibias with RPMI medium using a syringe (21G for femur and 26G for tibia) to extract the marrow, which was then suspended and passed through a cell strainer to make a single cell suspension. The bone marrow cell suspension was centrifuged at 1200 rpm for 5 minutes, and the supernatant was removed, then the cells were added to 1 mL of ACK lysis buffer and vortexed for 1 minute, followed by washing with RPMI medium. […] The incubated cell suspension was added with 5 mL of MACS buffer, centrifuged for 5 minutes, washed, and then re-suspended in 2 mL of MACS buffer. The suspended cells were placed in the autoMACS Pro Separator, and T cells bound to the CD90.2 microbeads were removed. The separated T cell-depleted bone marrow cells (TCD-BM) were washed with PBS and re-suspended in PBS at a concentration of 1×10^8 cells/mL. Normal BDF1 mice (10-12 week old, female, 20-23 g) were irradiated with 850 rad of γ radiation using an irradiator, and then 100 μL of a graft obtained by mixing the C57BL/6 mouse T cells and the TCD-BM at a ratio of 1:1 was injected into the tail vein of the BDF1 mice. In a group treated with compound 229 of the present invention, compound 229 was completely dissolved in a Cremophor EL-ethanol mixture (1:1, v/v) in an amount corresponding to 15% (v/v) of the administration volume, after which the compound solution was diluted in PBS, and the dilution was administered intraperitoneally to each mouse at a dose of 25 mg/kg daily for 10 days from the day of the graft injection. Meanwhile, Tacrolimus that is a currently clinically used immunosuppressive agent was administered to mice of another group in the same amount as compound 229 in order to compare the inhibitory effect on acute graft-versus-host disease, and mice of a vehicle control group were administered with 200 μL of a Cremophor EL-ethanol-PBS (7.5:7.5:85, v/v/v) in the same manner as the treated groups. Then, the survival of mice was monitored daily, and the severity of GVHD was assessed twice a week with clinical GVHD scoring system for each a decrease in weight loss, hunched posture, decreased activity, fur ruffling and skin lesions. Each parameters were scored on a 3-point (0 to 2) scale.

[7] = read-out: Cell Apoptosis Effect to Jurkat T Cell (% in 5 μM)
[8] = read-out: Jurkat T Cell Apoptosis (% in 5 μM)

Which results are given for `Cc1cc(C)c(OCC(=O)N/N=C/c2cccc3[nH]ccc23)c(C)c1` [Compound 065, (E)-N′-((1H-indol-4-yl)methylene)-2-(mesityloxy)acetohydrazide]?
EC50 [1]: 1.21 ± 0.01 µmol/L; cytotoxicity at 5 µM [2, 7]: 100%; EC50 [3]: 1.58 ± 0.03 µmol/L; EC50 [4]: 0.79 ± 0.01 µmol/L

With `Cc1cc(C)c(OCC(=O)N/N=C/c2ccc3cc[nH]c3c2)c(C)c1` [Compound 108, (E)-N′-((1H-indol-6-yl)methylene)-2-(mesityloxy)acetohydrazide] as the molecule, how does the EC50 [1] read?
Its EC50 is 1.41 ± 0.03 µmol/L.

And the cytotoxicity at 5 µM [2, 7]?
Its cytotoxicity at 5 µM is 100%.

And the EC50 [3]?
Its EC50 is 1.38 ± 0.04 µmol/L.

What about the EC50 [4] of the same molecule?
The EC50 was 0.78 ± 0.04 µmol/L.

`COc1ccc(OCC(=O)N/N=C/c2cccc3[nH]ccc23)c(-c2ccco2)c1` [Compound 346, (E)-N′-((1H-indol-4-yl)methylene)-2-(2-(furan-2-yl)-4-methoxyphenoxy)acetohydrazide] was tested. Which cytotoxicity at 5 µM [2, 8] did it give?
Its cytotoxicity at 5 µM is 100%.

How did the cytotoxicity at 5 µM [2, 8] turn out when `COc1ccc(OCC(=O)N/N=C/c2ccc3cc[nH]c3c2)c(-c2ccco2)c1` [Compound 347] was run?
Its cytotoxicity at 5 µM is 100%.

`O=C(COc1cccc(-c2ccco2)c1)N/N=C/c1cccc2[nH]ccc12` [Compound 356, (E)-N′-((1H-indol-4-yl)methylene)-2-(3-(furan-2-yl)phenoxy)acetohydrazide] was tested. Which cytotoxicity at 5 µM [2, 8] did it give?
The cytotoxicity at 5 µM was 90%.

How did the cytotoxicity at 5 µM [2, 8] turn out when `O=C(COc1cccc(-c2cccnc2)c1)N/N=C/c1cccc2[nH]ccc12` [Compound 358, (E)-N′-((1H-indol-4-yl)methylene)-2-(3-(pyridin-3-yl)phenoxy)acetohydrazide] was run?
Its cytotoxicity at 5 µM is 100%.

For `O=C(COc1cccc(-c2cccnc2)c1)N/N=C/c1ccc2cc[nH]c2c1` [Compound 359], which cytotoxicity at 5 µM [2, 8] is on record?
Its cytotoxicity at 5 µM is 80%.

For `Cc1cc(C)c(OCC(=O)N(C)/N=C/c2ccc3ccn(C)c3c2)c(C2CCOC2)c1` (centres unmarked) [Compound 375, (E)-2-(2,4-dimethyl-6-(tetrahydrofuran-3-yl)phenoxy)-N-methyl-N′-((1-methyl-1H-indol-6-yl)methylene)acetohydrazide], which cytotoxicity at 5 µM [2, 8] is on record?
Its cytotoxicity at 5 µM is 100%.

`Cc1cc(F)cc(C2CCOC2)c1OCC(=O)N/N=C/c1ccc2cc[nH]c2c1` (centres unmarked) [Compound 378, (E)-N′-((1H-indol-6-yl)methylene)-2-(4-fluoro-2-methyl-6-(tetrahydrofuran-3-yl)phenoxy)acetohydrazide] was tested. Which cytotoxicity at 5 µM [2, 8] did it give?
The cytotoxicity at 5 µM was 100%.

With `Cc1cc(F)cc(C2CCOC2)c1OCC(=O)N/N=C/c1cccc2[nH]ccc12` (centres unmarked) [Compound 379, (E)-N′-((1H-indol-4-yl)methylene)-2-(4-fluoro-2-methyl-6-(tetrahydrofuran-3-yl)phenoxy)acetohydrazide] as the molecule, how does the cytotoxicity at 5 µM [2, 8] read?
The cytotoxicity at 5 µM was 100%.

Which cytotoxicity at 5 µM [2, 8] does the source give for `Cc1cc(F)cc(C2CCOC2)c1OCC(=O)N(C)/N=C/c1ccc2ccn(C)c2c1` (centres unmarked) [Compound 380, (E)-2-(4-fluoro-2-methyl-6-(tetrahydrofuran-3-yl)phenoxy)-N-methyl-N′-((1-methyl-1H-indol-6-yl)methylene)acetohydrazide] here?
The cytotoxicity at 5 µM was 100%.

`CCCCCCCCc1ccc(CCC(N)(CO)CO)cc1` [Fingolimod, reference compound] was tested. Which “severity index (EAE, 0 to 5 scale)” value ([5]; at 17 days (start of administration)) did it give?
The value was 3±1.

What about the “severity index (EAE, 0 to 5 scale)” value ([5]; at 39 days, vehicle 2.5±0.75) of the same molecule?
The value was 1.5±0.5.

What about the “severity index (EAE, 0 to 5 scale)” value ([5]; at 101 days, vehicle 2.33±0.25) of the same molecule?
Its value is 2.7±0.25.

With `C=CC[C@@H]1/C=C(\C)C[C@H](C)C[C@H](OC)[C@H]2O[C@@](O)(C(=O)C(=O)N3CCCC[C@H]3C(=O)O[C@H](/C(C)=C/[C@@H]3CC[C@@H](O)[C@H](OC)C3)[C@H](C)[C@@H](O)CC1=O)[C@H](C)C[C@@H]2OC` [Tacrolimus, reference compound] as the molecule, how does the “severity of GVHD (clinical scoring system)” value [6] read?
The value was “ruffled fur and severe skin lesions”.

And the survival rate ([6]; final (day 70), vehicle 10%)?
Its survival rate is 50%.

What about the “mouse death, days after cell transplantation” value ([6]; vehicle from 29 days) of the same molecule?
Its value is ≥ 23 days.
